# Laboratory results from PubChem BioAssay (NCI).
#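 These data come from cells grown in 96-well plates and exposed to compound for 48 hours at five concentrations. GI50: concentration for 50% inhibition of growth. TGI marks complete inhibition of growth.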
# Assays:
# Assay in all cases: inhibition of tumour cell growth, NCI panel, 48 h
# TK-10 renal = system: TK-10 renal
# SR leukemia = system: SR leukemia
# 786-0 renal = system: 786-0 renal
# HCT-116 colon = system: HCT-116 colon
# EKVX NSCLC = system: EKVX NSCLC
# HOP-92 NSCLC = system: HOP-92 NSCLC
# A549 NSCLC = system: A549 NSCLC
# K-562 leukemia = system: K-562 leukemia
# M14 melanoma = system: M14 melanoma
# SN12C renal = system: SN12C renal
# SNB-19 CNS = system: SNB-19 CNS
# BT-549 breast = system: BT-549 breast
# NCI-H460 lung = system: NCI-H460 lung
# LOX IMVI melanoma = system: LOX IMVI melanoma
# NCI-H226 lung = system: NCI-H226 lung
# U251 CNS = system: U251 CNS
# HCT-15 colon = system: HCT-15 colon
# ACHN renal = system: ACHN renal
# SK-MEL-28 melanoma = system: SK-MEL-28 melanoma
# NCI/ADR-RES ovarian = system: NCI/ADR-RES ovarian
# CAKI-1 renal = system: CAKI-1 renal
# UACC-62 melanoma = system: UACC-62 melanoma
# HOP-62 NSCLC = system: HOP-62 NSCLC
# RXF 393 renal = system: RXF 393 renal
# NCI-H23 lung = system: NCI-H23 lung
# NCI-H522 lung = system: NCI-H522 lung
# MALME-3M melanoma = system: MALME-3M melanoma
# A498 renal = system: A498 renal
# OVCAR-5 ovarian = system: OVCAR-5 ovarian
# UO-31 renal = system: UO-31 renal
# IGROV1 ovarian = system: IGROV1 ovarian
# HS 578T breast = system: HS 578T breast
# SK-MEL-2 melanoma = system: SK-MEL-2 melanoma
# T-47D breast = system: T-47D breast
# SF-268 CNS = system: SF-268 CNS
# OVCAR-4 ovarian = system: OVCAR-4 ovarian
# PC-3 prostate = system: PC-3 prostate
# SK-MEL-5 melanoma = system: SK-MEL-5 melanoma
# SNB-75 CNS = system: SNB-75 CNS
# SW-620 colon = system: SW-620 colon
# MDA-MB-435 = system: MDA-MB-435
# CCRF-CEM leukemia = system: CCRF-CEM leukemia
# MOLT-4 leukemia = system: MOLT-4 leukemia
# KM12 colon = system: KM12 colon
# OVCAR-3 ovarian = system: OVCAR-3 ovarian
# DU-145 prostate = system: DU-145 prostate
# OVCAR-8 ovarian = system: OVCAR-8 ovarian
# HT29 colon = system: HT29 colon
# SF-295 CNS = system: SF-295 CNS
# MDA-MB-231 breast = system: MDA-MB-231 breast
# RPMI-8226 leukemia = system: RPMI-8226 leukemia
# SK-OV-3 ovarian = system: SK-OV-3 ovarian
# SF-539 CNS = system: SF-539 CNS
# MCF7 breast = system: MCF7 breast
# UACC-257 melanoma = system: UACC-257 melanoma
# HCC-2998 colon = system: HCC-2998 colon
# COLO 205 colon = system: COLO 205 colon
# HL-60(TB) leukemia = system: HL-60(TB) leukemia
smiles,measurement,setting,value
CS(=O)(=O)CC(Cc1ccccc1)C(=O)O (stereo not drawn),GI50,TK-10 renal,92.1 µg/mL
same,GI50,SR leukemia,10.6 µg/mL
CC(C)C1=CC23CCC4C(C)(C(=O)O)CCCC4(C)C2CC1C(C(=O)O)C3C(=O)O (stereo not drawn),TGI,786-0 renal,> 100 µM
same,TGI,HCT-116 colon,> 100 µM
same,TGI,EKVX NSCLC,> 100 µM
same,TGI,HOP-92 NSCLC,> 100 µM
same,TGI,A549 NSCLC,> 100 µM
same,TGI,K-562 leukemia,> 100 µM
same,TGI,M14 melanoma,> 100 µM
same,TGI,SN12C renal,> 100 µM
same,TGI,SNB-19 CNS,> 100 µM
same,TGI,BT-549 breast,> 100 µM
same,TGI,NCI-H460 lung,> 100 µM
same,TGI,LOX IMVI melanoma,> 100 µM
same,TGI,NCI-H226 lung,> 100 µM
same,TGI,U251 CNS,> 100 µM
same,TGI,HCT-15 colon,> 100 µM
same,TGI,ACHN renal,> 100 µM
same,TGI,SK-MEL-28 melanoma,> 100 µM
same,TGI,NCI/ADR-RES ovarian,> 100 µM
same,TGI,CAKI-1 renal,> 100 µM
same,TGI,UACC-62 melanoma,> 100 µM
same,TGI,HOP-62 NSCLC,> 100 µM
same,TGI,RXF 393 renal,> 100 µM
same,TGI,NCI-H23 lung,> 100 µM
same,TGI,NCI-H522 lung,> 100 µM
same,TGI,TK-10 renal,> 100 µM
same,TGI,SR leukemia,> 100 µM
same,TGI,MALME-3M melanoma,> 100 µM
same,TGI,A498 renal,> 100 µM
same,TGI,OVCAR-5 ovarian,> 100 µM
same,TGI,UO-31 renal,> 100 µM
same,TGI,IGROV1 ovarian,> 100 µM
same,TGI,HS 578T breast,> 100 µM
same,TGI,SK-MEL-2 melanoma,> 100 µM
same,TGI,T-47D breast,> 100 µM
same,TGI,SF-268 CNS,> 100 µM
same,TGI,OVCAR-4 ovarian,> 100 µM
same,TGI,PC-3 prostate,> 100 µM
same,TGI,SK-MEL-5 melanoma,> 100 µM
same,TGI,SNB-75 CNS,> 100 µM
same,TGI,SW-620 colon,> 100 µM
same,TGI,MDA-MB-435,> 100 µM
same,TGI,CCRF-CEM leukemia,> 100 µM
same,TGI,MOLT-4 leukemia,> 100 µM
same,TGI,KM12 colon,> 100 µM
same,TGI,OVCAR-3 ovarian,> 100 µM
same,TGI,DU-145 prostate,> 100 µM
same,TGI,OVCAR-8 ovarian,> 100 µM
same,TGI,HT29 colon,> 100 µM
same,TGI,SF-295 CNS,> 100 µM
same,TGI,MDA-MB-231 breast,> 100 µM
N=C(N)c1ccc(-c2ccc(-c3ccc(F)cc3)o2)o1,GI50,786-0 renal,1.66 µM
same,TGI,786-0 renal,3.49 µM
same,GI50,HCT-116 colon,1.18 µM
same,TGI,HCT-116 colon,2.59 µM
same,GI50,EKVX NSCLC,1.35 µM
same,TGI,EKVX NSCLC,3.18 µM
same,GI50,RPMI-8226 leukemia,2.48 µM
same,TGI,RPMI-8226 leukemia,6.1 µM
same,GI50,HOP-92 NSCLC,1.21 µM
same,TGI,HOP-92 NSCLC,2.95 µM
same,GI50,A549 NSCLC,1.65 µM
same,TGI,A549 NSCLC,3.3 µM
same,GI50,M14 melanoma,1.23 µM
same,TGI,M14 melanoma,2.79 µM
same,GI50,SN12C renal,1.8 µM
same,TGI,SN12C renal,3.65 µM
same,GI50,SNB-19 CNS,1.73 µM
same,TGI,SNB-19 CNS,4.05 µM
same,GI50,SK-OV-3 ovarian,2.32 µM
same,TGI,SK-OV-3 ovarian,7.14 µM
same,GI50,BT-549 breast,2.27 µM
same,TGI,BT-549 breast,7.19 µM
same,GI50,NCI-H460 lung,1.76 µM
same,TGI,NCI-H460 lung,3.36 µM
same,GI50,SF-539 CNS,1.63 µM
same,TGI,SF-539 CNS,3.08 µM
same,GI50,NCI-H226 lung,2.82 µM
same,TGI,NCI-H226 lung,9.71 µM
same,GI50,U251 CNS,1.6 µM
same,TGI,U251 CNS,3.08 µM
same,GI50,HCT-15 colon,0.631 µM
same,TGI,HCT-15 colon,2.08 µM
same,GI50,ACHN renal,1.6 µM
same,TGI,ACHN renal,2.97 µM
same,GI50,SK-MEL-28 melanoma,1.63 µM
same,TGI,SK-MEL-28 melanoma,3.18 µM
same,GI50,NCI/ADR-RES ovarian,1.67 µM
same,TGI,NCI/ADR-RES ovarian,4.1 µM
same,GI50,MCF7 breast,0.685 µM
same,TGI,MCF7 breast,2.38 µM
same,GI50,CAKI-1 renal,1.71 µM
same,TGI,CAKI-1 renal,3.56 µM
same,GI50,UACC-62 melanoma,1.74 µM
same,TGI,UACC-62 melanoma,3.27 µM
same,GI50,HOP-62 NSCLC,1.6 µM
same,TGI,HOP-62 NSCLC,3.25 µM
same,GI50,RXF 393 renal,1.6 µM
same,TGI,RXF 393 renal,3.4 µM
same,GI50,NCI-H23 lung,1.93 µM
same,TGI,NCI-H23 lung,4.88 µM
same,GI50,UACC-257 melanoma,1.98 µM
same,TGI,UACC-257 melanoma,3.69 µM
same,GI50,NCI-H522 lung,1.36 µM
same,TGI,NCI-H522 lung,2.9 µM
same,GI50,TK-10 renal,1.55 µM
same,TGI,TK-10 renal,2.92 µM
same,GI50,MALME-3M melanoma,1.63 µM
same,TGI,MALME-3M melanoma,3.26 µM
same,GI50,A498 renal,1.9 µM
same,TGI,A498 renal,5.95 µM
same,GI50,HCC-2998 colon,1.37 µM
same,TGI,HCC-2998 colon,2.81 µM
same,GI50,OVCAR-5 ovarian,1.66 µM
same,TGI,OVCAR-5 ovarian,3.4 µM
same,GI50,UO-31 renal,1.43 µM
same,TGI,UO-31 renal,2.78 µM
same,GI50,IGROV1 ovarian,1.58 µM
same,TGI,IGROV1 ovarian,3.35 µM
same,GI50,HS 578T breast,1.95 µM
same,TGI,HS 578T breast,4.82 µM
same,GI50,SK-MEL-2 melanoma,1.76 µM
same,TGI,SK-MEL-2 melanoma,3.39 µM
same,GI50,SF-268 CNS,1.92 µM
same,TGI,SF-268 CNS,4.67 µM
same,GI50,OVCAR-4 ovarian,1.62 µM
same,TGI,OVCAR-4 ovarian,3.2 µM
same,GI50,PC-3 prostate,1.22 µM
same,TGI,PC-3 prostate,2.57 µM
same,GI50,COLO 205 colon,1.6 µM
same,TGI,COLO 205 colon,3.15 µM
same,GI50,SK-MEL-5 melanoma,1.56 µM
same,TGI,SK-MEL-5 melanoma,2.92 µM
same,GI50,SNB-75 CNS,1.55 µM
same,TGI,SNB-75 CNS,3.49 µM
same,GI50,SW-620 colon,0.943 µM
same,TGI,SW-620 colon,2.38 µM
same,GI50,MDA-MB-435,0.347 µM
same,TGI,MDA-MB-435,1.3 µM
same,GI50,CCRF-CEM leukemia,1.84 µM
same,TGI,CCRF-CEM leukemia,5.57 µM
same,GI50,MOLT-4 leukemia,1.6 µM
same,TGI,MOLT-4 leukemia,4.68 µM
same,GI50,KM12 colon,1.44 µM
same,TGI,KM12 colon,3.41 µM
same,GI50,OVCAR-3 ovarian,1.84 µM
same,TGI,OVCAR-3 ovarian,4.16 µM
same,GI50,DU-145 prostate,1.8 µM
same,TGI,DU-145 prostate,3.36 µM
same,GI50,HT29 colon,0.606 µM
same,TGI,HT29 colon,1.94 µM
same,GI50,SF-295 CNS,1.51 µM
same,TGI,SF-295 CNS,3.05 µM
same,GI50,MDA-MB-231 breast,1.57 µM
same,TGI,MDA-MB-231 breast,3.33 µM
same,GI50,HL-60(TB) leukemia,1.8 µM
same,TGI,HL-60(TB) leukemia,4.4 µM
COC(=O)c1ccccc1CC(Cc1ccccc1)C(=O)OC (stereo not drawn),TGI,786-0 renal,> 100 µM
same,TGI,HCT-116 colon,> 100 µM
same,TGI,EKVX NSCLC,> 100 µM
same,TGI,RPMI-8226 leukemia,> 100 µM
same,TGI,A549 NSCLC,> 100 µM
same,TGI,K-562 leukemia,> 100 µM
same,TGI,M14 melanoma,> 100 µM
same,TGI,SN12C renal,> 100 µM
same,TGI,SNB-19 CNS,> 100 µM
same,TGI,SK-OV-3 ovarian,> 100 µM
same,TGI,BT-549 breast,> 100 µM
same,TGI,NCI-H460 lung,> 100 µM
same,TGI,SF-539 CNS,> 100 µM
same,TGI,LOX IMVI melanoma,> 100 µM
same,TGI,NCI-H226 lung,> 100 µM
same,TGI,U251 CNS,> 100 µM
same,TGI,HCT-15 colon,> 100 µM
same,TGI,ACHN renal,> 100 µM
same,TGI,SK-MEL-28 melanoma,> 100 µM
same,TGI,NCI/ADR-RES ovarian,> 100 µM
same,TGI,MCF7 breast,> 100 µM
same,TGI,CAKI-1 renal,> 100 µM
same,TGI,HOP-62 NSCLC,> 100 µM
same,TGI,RXF 393 renal,70.9 µM
same,TGI,NCI-H23 lung,> 100 µM
same,TGI,UACC-257 melanoma,> 100 µM
same,TGI,NCI-H522 lung,> 100 µM
same,TGI,TK-10 renal,> 100 µM
same,TGI,SR leukemia,> 100 µM
same,TGI,MALME-3M melanoma,> 100 µM
same,TGI,A498 renal,> 100 µM
same,TGI,HCC-2998 colon,> 100 µM
same,TGI,OVCAR-5 ovarian,> 100 µM
same,TGI,UO-31 renal,> 100 µM
same,TGI,IGROV1 ovarian,> 100 µM
same,TGI,HS 578T breast,> 100 µM
same,TGI,SK-MEL-2 melanoma,> 100 µM
same,TGI,SF-268 CNS,61.3 µM
same,TGI,OVCAR-4 ovarian,> 100 µM
same,TGI,PC-3 prostate,> 100 µM
same,TGI,COLO 205 colon,> 100 µM
same,TGI,SK-MEL-5 melanoma,54.8 µM
same,TGI,SNB-75 CNS,73.7 µM
same,TGI,SW-620 colon,> 100 µM
same,TGI,MDA-MB-435,> 100 µM
same,TGI,CCRF-CEM leukemia,> 100 µM
same,TGI,MOLT-4 leukemia,90.7 µM
same,TGI,KM12 colon,> 100 µM
same,TGI,OVCAR-3 ovarian,> 100 µM
same,TGI,DU-145 prostate,> 100 µM
same,TGI,OVCAR-8 ovarian,> 100 µM
same,TGI,HT29 colon,> 100 µM
same,TGI,SF-295 CNS,> 100 µM
same,TGI,MDA-MB-231 breast,> 100 µM
same,TGI,HL-60(TB) leukemia,55.9 µM
